Assay [1] deals with E3 ubiquitin-protein ligase Mdm2 (Homo sapiens, UniProt Q00987). Kind of assay: MDM2-luc reporter signal enhancers, multi-concentration potency testing, MDM2 ubiquitin-protein ligase inhibitor program, whole-cell format, luminescence detection, 384-well microplate (AID 1394).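 Note: MDM2 E3 inhibitors raise luminescence so EC50 is for signal enhancement.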 In kind it is functional.
Assay [2] in a line: viability of PTEN-deleted HCT116 cells – cell-based, HCT116 PTEN knockout, dose response (AID 1047).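 Note: HCT116 colon tumor cells with PTEN knocked out; cells exposed to compound for 60 hours before readout; potency for loss of cell viability measured by luminescence.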 In kind it is functional.
The nature of assay [3]: viability of HCT116 lacking mutant beta-catenin – cell-based, human colon tumor, dose response (AID 1045).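 Note: HCT116 colon tumor cells with beta catenin knocked out; cells exposed to compound for 60 hours.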 In kind it is functional.
Assay [4] addresses Sphingosine 1-phosphate receptor 2 (Homo sapiens, UniProt O95136). As to the kind of experiment: Dose Response Cell Based Assay for Agonists of the S1P2 Receptor. [Related pubchem assays: 729, 736, 843 ]. In kind it is functional.
Assay [5] is described as follows: Luminescence Cell-Based Dose Retest to Confirm Inhibitors of Cancer Stem Cells. [Related pubchem assays (depositor defined):AID2717, AID2721]. In kind it is functional. Conditions: Homo sapiens.
The nature of assay [6]: potency of ADAM10 substrate cleavage blockers – biochemical, QFRET, dose response (AID 743254).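 Note: ADAM10 enzyme with the DM2 quenched FRET peptide as substrate; EDANS fluorescence gain as the protease cuts the substrate; inhibitor potency against ADAM10 proteolytic activity.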
For assay [7], the target named is Disintegrin and metalloproteinase domain-containing protein 17 (Homo sapiens, UniProt P78536). Kind of assay: inhibition of ADAM17 substrate cleavage – biochemical, quenched FRET substrate, counter-screen for ADAM10 exosite inhibitor project, dose response (AID 743253). A general note: A counterscreen serves to expose hits that act by an unwanted route or on another target.
Chain of Disintegrin and metalloproteinase domain-containing protein 17 (P78536 whole entry, the tested form may be a part): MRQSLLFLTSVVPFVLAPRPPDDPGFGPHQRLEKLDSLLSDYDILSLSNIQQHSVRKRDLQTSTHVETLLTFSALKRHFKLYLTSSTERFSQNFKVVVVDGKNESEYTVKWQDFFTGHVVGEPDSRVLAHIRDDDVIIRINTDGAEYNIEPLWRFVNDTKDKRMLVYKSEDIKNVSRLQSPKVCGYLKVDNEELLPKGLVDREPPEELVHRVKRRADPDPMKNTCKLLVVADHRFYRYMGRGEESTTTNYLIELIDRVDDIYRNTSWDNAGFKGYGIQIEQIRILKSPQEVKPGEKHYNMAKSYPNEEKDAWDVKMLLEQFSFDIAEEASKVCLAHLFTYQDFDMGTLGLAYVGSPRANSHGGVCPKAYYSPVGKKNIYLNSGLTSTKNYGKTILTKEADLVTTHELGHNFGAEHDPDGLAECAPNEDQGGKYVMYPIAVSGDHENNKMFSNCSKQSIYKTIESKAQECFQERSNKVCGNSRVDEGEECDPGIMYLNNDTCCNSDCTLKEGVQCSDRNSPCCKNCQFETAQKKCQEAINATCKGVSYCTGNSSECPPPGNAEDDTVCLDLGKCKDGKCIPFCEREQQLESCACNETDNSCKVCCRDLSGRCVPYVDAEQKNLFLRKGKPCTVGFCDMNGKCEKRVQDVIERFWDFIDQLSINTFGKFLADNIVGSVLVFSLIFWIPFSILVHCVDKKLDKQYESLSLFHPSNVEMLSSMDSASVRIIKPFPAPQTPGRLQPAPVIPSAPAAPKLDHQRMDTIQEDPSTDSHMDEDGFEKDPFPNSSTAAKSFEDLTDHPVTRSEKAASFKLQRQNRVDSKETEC

Assay [8] addresses T1, Tyrosine-protein phosphatase non-receptor type 7 (Homo sapiens, UniProt P35236).
T1 sequence (P35236 whole entry): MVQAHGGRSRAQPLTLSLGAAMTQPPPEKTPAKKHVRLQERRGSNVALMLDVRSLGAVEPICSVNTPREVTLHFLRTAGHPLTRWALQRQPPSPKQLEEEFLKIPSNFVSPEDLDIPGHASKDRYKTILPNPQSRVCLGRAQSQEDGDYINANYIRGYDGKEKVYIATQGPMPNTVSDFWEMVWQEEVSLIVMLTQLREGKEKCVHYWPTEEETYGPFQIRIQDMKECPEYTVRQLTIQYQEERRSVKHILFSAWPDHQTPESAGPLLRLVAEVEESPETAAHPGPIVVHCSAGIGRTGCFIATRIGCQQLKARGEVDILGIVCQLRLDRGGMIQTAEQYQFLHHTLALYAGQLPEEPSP
As to the kind of experiment: HePTP tyrosine phosphatase activity blockers – biochemical, absorbance, leukemia target, primary screen (AID 521). In kind it is functional.

The structures appear in SMILES notation. Active and inactive are the calls of the source.
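Throughout, for AC50: cells exposed to compound for roughly 70 hours or longer before luminescence read.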

Chain of E3 ubiquitin-protein ligase Mdm2 (Q00987 whole entry): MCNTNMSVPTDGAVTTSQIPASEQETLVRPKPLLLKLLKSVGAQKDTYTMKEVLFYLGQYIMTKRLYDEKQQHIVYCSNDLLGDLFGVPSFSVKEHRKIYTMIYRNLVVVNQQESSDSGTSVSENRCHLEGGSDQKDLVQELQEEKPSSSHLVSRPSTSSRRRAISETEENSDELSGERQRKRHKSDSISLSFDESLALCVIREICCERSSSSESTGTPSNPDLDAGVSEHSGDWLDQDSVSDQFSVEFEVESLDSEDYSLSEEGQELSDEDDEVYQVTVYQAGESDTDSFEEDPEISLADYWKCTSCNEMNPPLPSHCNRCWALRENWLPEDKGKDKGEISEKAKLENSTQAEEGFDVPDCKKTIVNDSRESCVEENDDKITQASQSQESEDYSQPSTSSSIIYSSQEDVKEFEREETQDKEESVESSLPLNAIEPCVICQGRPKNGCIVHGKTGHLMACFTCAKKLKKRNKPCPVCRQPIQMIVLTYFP
Chain of Sphingosine 1-phosphate receptor 2 (O95136 whole entry): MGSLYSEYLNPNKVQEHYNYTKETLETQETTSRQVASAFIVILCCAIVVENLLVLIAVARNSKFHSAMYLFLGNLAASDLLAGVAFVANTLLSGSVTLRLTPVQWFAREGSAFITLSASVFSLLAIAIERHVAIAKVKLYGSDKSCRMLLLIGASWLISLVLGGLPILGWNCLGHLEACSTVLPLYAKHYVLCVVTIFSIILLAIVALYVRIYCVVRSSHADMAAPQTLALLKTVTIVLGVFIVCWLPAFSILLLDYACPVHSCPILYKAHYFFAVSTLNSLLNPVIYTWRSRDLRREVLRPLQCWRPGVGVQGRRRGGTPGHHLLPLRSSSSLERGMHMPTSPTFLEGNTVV

As usually defined, the EC50 is the concentration needed to bring the measured effect to its halfway point. `COc1ccccc1N1CCN(C(c2ccc(C)cc2)c2nnnn2C(C)C)CC1` (stereo not drawn): the EC50 in assay [1] was 14.5 µM (not active).
The term AC50 denotes the concentration at which the activity in the assay is half-maximal. A word on the IC50: it is the concentration at which inhibition is half-maximal. In the case of `COc1ccc(C(c2c[nH]c3ccccc23)c2c[nH]c3ccccc23)cc1O`, the concentration for a half-maximal effect (EC50) in assay [2] was 31 µM (active); in assay [3], 558 µM (active); in assay [4] it was > 50 µM (not active). For the same compound, the AC50 in assay [5] is 4.09 µM (active). The IC50 in assay [6] and in assay [7] was > 69.5 µM (inactive) each time.
Consider `O=C(NCc1ccc(F)cc1)c1cc2ccccn2n1`, for which the IC50 in assay [8] is > 100 µM (not active).
